Measured values reported in ChEMBL document CHEMBL4765253, “Discovery, synthesis, and optimization of an N-alkoxy indolylacetamide against HIV-1 carrying NNRTI-resistant mutations from the Isatis indigotica root” (Eur J Med Chem, 2020).

Assays:
[1] = system: Human immunodeficiency virus 1; assay: Antiviral activity against VSVG/wild-type HIV-1 infected in human HEK 293T cells assessed as time during which compound exhibits 50% virologic failure at 1 uM treated at post-viral infection and measured at 48 hrs post-infection by luciferase reporter gene assay; format: functional, HEK293T
[2] = system: Human immunodeficiency virus 1; format: functional, organism-based, HEK293T; conditions: Human immunodeficiency virus 1, HEK-293T
HEK-293T = assay: Cytotoxicity against human HEK 293T cells assessed as reduction in cell viability measured after 48 hrs by Celltiter-glo assay; format: cell-based
[3] = system: Human immunodeficiency virus 1; assay: (§1) Antiviral activity against VSVG/HIV-1 harboring reverse transcriptase L100I/K103N double mutant infected in human HEK 293T cells assessed as inhibition of virus replication preincubated with cells for 15 mins prior to viral infection and measured at 48 hrs post-infection by luciferase reporter gene assay; format: functional, organism-based; conditions: hek293t
[4] = system: Human immunodeficiency virus 1; assay: Antiviral activity against VSVG/wild-type HIV-1 infected in human HEK 293T cells assessed as inhibition of virus replication preincubated with cells for 15 mins prior to viral infection and measured at 48 hrs post-infection by luciferase reporter gene assay; format: functional, organism-based, HEK293T; conditions: Human immunodeficiency virus 1, HEK-293T
[5] = system: Human immunodeficiency virus 1; format: functional, organism-based, HEK293T
[6] = system: Human immunodeficiency virus 1; assay: as §1, with “V108I/K103N” for “L100I/K103N”; format: functional, organism-based, HEK293T
[7] = system: Human immunodeficiency virus 1; assay: Antiviral activity against VSVG/HIV-1 harboring reverse transcriptase K103N mutant infected in human HEK 293T cells assessed as inhibition of virus replication preincubated with cells for 15 mins prior to viral infection and measured at 48 hrs post-infection by luciferase reporter gene assay; format: functional, organism-based, HEK293T; conditions: Human immunodeficiency virus 1, HEK-293T
[8] = system: Human immunodeficiency virus 1; assay: as §1, with “G190A/K103N” for “L100I/K103N”; format: functional, organism-based, HEK293T
[9] = system: Human immunodeficiency virus 1; format: functional, organism-based, HEK293T; remark: listed apart in the source
[10] = Inhibition of HIV-1 reverse transcriptase RNA-dependent DNA polymerase activity assessed as reduction in dTTP incorporation using poly(rA)/oligo(dT) as template/primer incubated for 1 hr followed by transferring into streptavidin plate for 1 hr by absorbance based analysis; parameters: species or system Human immunodeficiency virus 1
[11] = Inhibition of RNase H activity of HIV-1 reverse transcriptase using DNA/RNA hybrid as substrate incubated for 30 mins by fluorescence based analysis; parameters: species or system Human immunodeficiency virus 1
[12] = Human immunodeficiency virus 1, HEK-293T

Structure (SMILES)	FT50 [1]	EC50 [2]	CC50 (HEK-293T)	EC50 [3]	EC50 [4]	EC50 ([5]; hek293t)	EC50 [6, 12]	EC50 [7]	EC50 [8, 12]	EC50 [9, 12]	IC50 [10]	IC50 [11]	EC50 [5, 12]	EC50 ([6]; hek293t)	EC50 ([9]; hek293t)	EC50 ([8]; hek293t)
Cc1nnc(C(=O)NC(C)(C)c2nc(C(=O)NCc3ccc(F)cc3)c(O)c(=O)n2C)o1	12.2 h															
CCCOn1cc(CC(=O)Nc2ccccc2Cl)c2ccccc21		> 10000 nM	29500 nM	8950 nM	290 nM	2130 nM	> 10000 nM	> 10000 nM	> 10000 nM	> 10000 nM	270 nM	> 100000 nM				
CCCCOn1cc(CC(=O)Nc2ccncc2Cl)c2ccccc21			22100 nM	430 nM	40 nM				700 nM		80 nM	> 100000 nM	40 nM	560 nM	1420 nM	
O=C1Nc2ccc(Cl)cc2[C@@](C#CC2CC2)(C(F)(F)F)O1 [EFAVIRENZ]	9.4 h	50 nM	23700 nM	1080 nM			60 nM	30 nM					2 nM		120 nM	180 nM
Cc1cn([C@H]2C[C@H](N=[N+]=[N-])[C@@H](CO)O2)c(=O)[nH]c1=O [ZIDOVUDINE]	8.5 h															
